Experiments:
NSCLC = conditions: chemo-refractory advanced stage NSCLC, phase II clinical trials; cited from earlier work
A549 NSCLC xenografts = test: Athymic nude mice bearing human NSCLC xenografts (FIG. 5); type: in vivo
Text: FIG. 5 is a line graph showing the effects of gefitinib on A549 NSCLC xenografts.

## COc1cc2ncnc(Nc3ccc(F)c(Cl)c3)c2cc1OCCCN1CCOCC1 [ZD 1839, gefitinib]
NSCLC
  patients responding to treatment: 11-20%
A549 NSCLC xenografts; listed as ZD1839
  tumor growth of NSCLC xenografts after treatment: Growth delay was evident
A549 NSCLC xenografts; listed as gefitinib
  tumor growth of NSCLC xenografts after treatment: inhibitory effect

From patent US8017321B2, “Gefitinib sensitivity-related gene expression and products and methods related thereto” (The Regents of the University of Colorado, A Body Corporate, priority 2005, dated 2011)
